Measured values reported in patent US11186564B2, “Dual NAV1.2/5HT2a inhibitors for treating CNS disorders” (Sunovion Pharmaceuticals Inc., priority 2016, dated 2021).
Like-named read-outs stand apart in the source and are kept apart here.

How the values were obtained:
[1] = biological target: human sodium channel NaV1.2 (Homo sapiens, UniProt Q99250); test: NaV1.2 inhibition, automated patch-clamp (Q-Patch HTX), slow inactivated state (state C); assay type: cell-based; conditions: hNaV1.2 CHO cells, slow inactivated state; for IC50: read-out: NaV1.2 IC50; for inhibition at 1 µM: 1 μM compound, read-out: NaV1.2 (% inh), 1 μM; for inhibition at 10 µM: 10 μM compound, read-out: NaV1.2 (% inh), 10 μM
In short: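 CHO K-1 cells stably expressing human NaV1.2, whole-cell automated patch clamp, holding −100 mV; slow-inactivated state (state C) read at a 5 ms step to 0 mV after 10 s at −50 mV and 15 ms at −90 mV. Percent inhibition vs vehicle; IC50 by nonlinear least-squares fit.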

[2] = biological target: T1, recombinant human serotonin receptor 5-HT2A (Homo sapiens, UniProt P28223); test: 5-HT2A antagonist Ca2+ assay in CHO-K1 cells (method A aequorin luminescence / method B FLIPR fluorescence); assay type: cell-based; conditions: antagonist mode vs EC80 of reference agonist, method A or B
T1 construct: expressed in transfected cells; method B: loaded with Ca2+ dye
In short: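 Method A: CHO-K1 cells co-expressing human 5-HT2A and mitochondrial apoaequorin were given reference agonist at EC80 15 min after compound, with luminescence read. Method B: dye-loaded 5-HT2A CHO-K1 cells were pretreated with compound, then given serotonin at EC80, with FLIPR fluorescence read. IC50s came from nonlinear fits of percent inhibition.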

Chain of human sodium channel NaV1.2 (Q99250 whole entry): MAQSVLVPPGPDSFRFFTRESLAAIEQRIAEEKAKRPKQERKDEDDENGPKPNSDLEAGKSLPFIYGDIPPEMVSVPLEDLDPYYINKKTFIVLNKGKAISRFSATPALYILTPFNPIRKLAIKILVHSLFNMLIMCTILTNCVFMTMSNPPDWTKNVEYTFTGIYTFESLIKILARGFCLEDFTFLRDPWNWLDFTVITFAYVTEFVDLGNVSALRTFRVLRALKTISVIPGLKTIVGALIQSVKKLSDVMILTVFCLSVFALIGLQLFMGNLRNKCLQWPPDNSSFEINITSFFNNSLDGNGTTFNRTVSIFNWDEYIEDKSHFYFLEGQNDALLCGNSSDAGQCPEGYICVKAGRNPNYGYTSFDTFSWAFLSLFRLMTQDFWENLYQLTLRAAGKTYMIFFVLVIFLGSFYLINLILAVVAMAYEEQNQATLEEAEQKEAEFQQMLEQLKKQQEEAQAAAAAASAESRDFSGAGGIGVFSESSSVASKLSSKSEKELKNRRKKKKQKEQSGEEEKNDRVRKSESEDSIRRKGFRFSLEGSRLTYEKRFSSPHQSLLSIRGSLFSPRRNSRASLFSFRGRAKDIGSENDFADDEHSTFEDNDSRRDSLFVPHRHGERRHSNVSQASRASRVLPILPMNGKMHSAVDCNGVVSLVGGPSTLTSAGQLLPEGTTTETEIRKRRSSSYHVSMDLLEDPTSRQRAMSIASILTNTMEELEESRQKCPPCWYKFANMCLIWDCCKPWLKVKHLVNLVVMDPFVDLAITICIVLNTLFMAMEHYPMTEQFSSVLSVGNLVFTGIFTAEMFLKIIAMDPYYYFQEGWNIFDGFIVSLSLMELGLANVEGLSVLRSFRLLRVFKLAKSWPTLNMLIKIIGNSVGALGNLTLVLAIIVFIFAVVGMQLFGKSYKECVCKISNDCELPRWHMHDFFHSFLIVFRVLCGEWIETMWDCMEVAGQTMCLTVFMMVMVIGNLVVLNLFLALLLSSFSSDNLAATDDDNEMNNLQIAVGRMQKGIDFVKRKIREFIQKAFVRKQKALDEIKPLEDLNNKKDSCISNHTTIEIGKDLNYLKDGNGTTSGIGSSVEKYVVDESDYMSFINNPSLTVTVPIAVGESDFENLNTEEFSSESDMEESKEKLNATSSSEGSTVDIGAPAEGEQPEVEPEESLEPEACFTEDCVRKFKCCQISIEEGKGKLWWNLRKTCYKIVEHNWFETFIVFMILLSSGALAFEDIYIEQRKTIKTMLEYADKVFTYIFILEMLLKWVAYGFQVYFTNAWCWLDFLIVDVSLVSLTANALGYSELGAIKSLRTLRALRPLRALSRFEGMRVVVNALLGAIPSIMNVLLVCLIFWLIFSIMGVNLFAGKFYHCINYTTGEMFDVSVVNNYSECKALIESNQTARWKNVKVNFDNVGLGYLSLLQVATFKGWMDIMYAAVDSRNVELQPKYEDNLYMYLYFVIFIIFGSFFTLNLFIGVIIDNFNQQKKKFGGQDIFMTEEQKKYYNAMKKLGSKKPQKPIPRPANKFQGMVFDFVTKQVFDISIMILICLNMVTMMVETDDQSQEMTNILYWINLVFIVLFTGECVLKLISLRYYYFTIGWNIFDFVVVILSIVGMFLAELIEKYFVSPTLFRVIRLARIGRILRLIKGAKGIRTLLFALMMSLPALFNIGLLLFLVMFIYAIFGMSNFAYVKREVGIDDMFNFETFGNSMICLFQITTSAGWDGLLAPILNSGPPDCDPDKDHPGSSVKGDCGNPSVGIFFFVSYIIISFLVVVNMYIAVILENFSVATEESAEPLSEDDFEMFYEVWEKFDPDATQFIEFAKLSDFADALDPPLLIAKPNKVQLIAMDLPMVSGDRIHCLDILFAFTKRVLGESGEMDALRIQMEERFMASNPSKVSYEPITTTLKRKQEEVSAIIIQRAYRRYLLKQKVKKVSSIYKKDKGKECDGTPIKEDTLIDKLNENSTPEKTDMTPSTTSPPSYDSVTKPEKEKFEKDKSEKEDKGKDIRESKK
T1 sequence (P28223 whole entry): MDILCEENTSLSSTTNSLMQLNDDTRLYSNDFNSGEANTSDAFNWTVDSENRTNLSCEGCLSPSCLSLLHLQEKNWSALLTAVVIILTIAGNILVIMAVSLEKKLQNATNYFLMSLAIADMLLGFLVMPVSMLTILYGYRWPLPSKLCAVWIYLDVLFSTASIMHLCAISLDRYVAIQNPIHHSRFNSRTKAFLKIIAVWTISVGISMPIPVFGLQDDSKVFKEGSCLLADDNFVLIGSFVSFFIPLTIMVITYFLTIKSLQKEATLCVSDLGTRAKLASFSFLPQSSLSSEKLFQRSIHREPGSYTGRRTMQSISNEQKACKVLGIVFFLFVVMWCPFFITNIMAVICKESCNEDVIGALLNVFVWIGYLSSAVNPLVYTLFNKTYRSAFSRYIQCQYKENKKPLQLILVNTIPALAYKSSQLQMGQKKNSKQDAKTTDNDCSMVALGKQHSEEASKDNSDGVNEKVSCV

Structure (SMILES): COc1ccc2c(c1)C(CN1CCC(OCc3ccccc3F)CC1)CC2 (centres unmarked) [Example 243, 4-((2-fluorobenzyl)oxy)-1-((6-methoxy-2,3-dihydro-1H-inden-1-yl)methyl)piperidine]
- IC50 [1]: 100 nM
- IC50 ([2]; read-out: 5HT2A IC50): 0.36 µM

Structure (SMILES): COc1ccc2c(c1)C(CN1CCC(Oc3cccc(C)n3)CC1)CC2 (centres unmarked) [Example 124, 2-((1-((6-methoxy-2,3-dihydro-1H-inden-1-yl)methyl)piperidin-4-yl)oxy)-6-methylpyridine]
- inhibition at 1 µM [1]: 34%
- IC50 ([2]; read-out: 5HT2A IC50): 0.12 µM

Structure (SMILES): OC(CO[C@@H]1CCc2ccccc21)CN1CC[C@@H](Oc2ccc(F)cc2)C1 (stereo partly drawn) [Example 44, 1-(((R)-2,3-dihydro-1H-inden-1-yl)oxy)-3-((R)-3-(4-fluorophenoxy)pyrrolidin-1-yl)propan-2-ol]
- IC50 [1]: 240 nM
- IC50 ([2]; read-out: 5HT2A IC50): 0.14 µM

Structure (SMILES): Cc1ccccc1OCC(O)CN1CCC(c2nc3ccccc3s2)CC1 (centres unmarked) [Example 91, 1-(4-(benzo[d]thiazol-2-yl)piperidin-1-yl)-3-(o-tolyloxy)propan-2-ol]
- IC50 [1]: 170 nM
- IC50 ([2]; read-out: 5HT2A IC50): 0.02 µM

Structure (SMILES): c1ccc2c(c1)CCC1(CCN(CC3CCc4ccccc43)C1)O2 (centres unmarked) [Example 387, 1′-((2,3-dihydro-1H-inden-1-yl)methyl)spiro[chromane-2,3′-pyrrolidine]]
- inhibition at 1 µM [1]: 29%
- IC50 ([2]; read-out: 5HT2A IC50): 0.03 µM

Structure (SMILES): O[C@H](COC1CCCCC1)CN1[C@@H]2CC[C@H]1CN(c1ccccc1)C2 [Example 287, (S)-1-(cyclohexyloxy)-3-((1R,5S)-3-phenyl-3,8-diazabicyclo[3.2.1]octan-8-yl)propan-2-ol]
- IC50 [1]: 580 nM
- IC50 ([2]; 5HT2A IC50, μM): 0.03 µM

Structure (SMILES): c1ccc(O[C@@H]2COC3(CCN(C[C@H]4CCc5ccccc54)CC3)C2)cc1 (single isomer, unassigned) [Compound 384]
- IC50 [1]: 290 nM
- IC50 ([2]; read-out: 5HT2A IC50): 0.3 µM

Structure (SMILES): OC(CO[C@H]1CCc2ccccc21)CN1CCC(Oc2ccc(F)cc2)CC1 (stereo partly drawn) [Example 235, 1-(((S)-2,3-dihydro-1H-inden-1-yl)oxy)-3-(4-(4-fluorophenoxy)piperidin-1-yl)propan-2-ol]
- IC50 [1]: 340 nM
- IC50 ([2]; read-out: 5HT2A IC50): 0.19 µM

Structure (SMILES): Cc1ccc(N2CCN(C[C@@H](O)COC3CCCCC3)CC2)cc1 [Example 78, (R)-1-(cyclohexyloxy)-3-(4-(p-tolyl)piperazin-1-yl)propan-2-ol]
- IC50 [1]: 4660 nM
- IC50 ([2]; read-out: 5HT2A IC50): > 10 µM

Structure (SMILES): COc1ccc2c(c1)C(CN1CC[C@@H]3C[C@H]1CN3c1ccccc1)CC2 (stereo partly drawn) [Example 319, (1S,5R)-2-((6-methoxy-2,3-dihydro-1H-inden-1-yl)methyl)-6-phenyl-2,6-diazabicyclo[3.2.1]octane]
- IC50 [1]: 40 nM
- IC50 ([2]; read-out: 5HT2A IC50): 1.21 µM

Structure (SMILES): c1ccc([C@@H]2COC3(CCN(C[C@@H]4CCc5ccccc54)CC3)C2)cc1 (single isomer, unassigned) [Compound 376]
- IC50 [1]: 510 nM
- IC50 ([2]; read-out: 5HT2A IC50): 0.02 µM

Structure (SMILES): Fc1ccc(OC2CCN(CCC3CCc4ccccc43)CC2)cc1 (centres unmarked) [Example 171, 1-(2-(2,3-dihydro-1H-inden-1-yl)ethyl)-4-(4-fluorophenoxy)piperidine]
- IC50 [1]: 40 nM
- IC50 ([2]; read-out: 5HT2A IC50): 0.06 µM

Structure (SMILES): COc1ccc2c(c1)C(CN1CCC(Oc3ccccc3C#N)CC1)CC2 (centres unmarked) [Example 98, 2-((1-((6-methoxy-2,3-dihydro-1H-inden-1-yl)methyl)piperidin-4-yl)oxy)benzonitrile]
- inhibition at 1 µM [1]: 37%
- IC50 ([2]; read-out: 5HT2A IC50): 0.01 µM

Structure (SMILES): COc1ccc2c(c1)C(CN1CCC3(CCc4ccccc4O3)CC1)CC2 (centres unmarked) [Example 402, 1′-((6-methoxy-2,3-dihydro-1H-inden-1-yl)methyl)spiro[chromane-2,4′-piperidine]]
- IC50 [1]: 70 nM
- IC50 ([2]; read-out: 5HT2A IC50): 1.07 µM

Structure (SMILES): OC(COC1CCCCC1)CN1CC[C@H]2C[C@@H]1CN2c1ccccc1 (stereo partly drawn) [Example 325, 1-(cyclohexyloxy)-3-((1R,5S)-6-phenyl-2,6-diazabicyclo[3.2.1]octan-2-yl)propan-2-ol]
- IC50 [1]: 220 nM
- IC50 ([2]; read-out: 5HT2A IC50): 0.25 µM

Structure (SMILES): COc1ccc2c(c1)C(CN1CC3(CC(Oc4ccc(F)cc4)CO3)C1)CC2 (centres unmarked) [Example 369, 7-(4-fluorophenoxy)-2-((6-methoxy-2,3-dihydro-1H-inden-1-yl)methyl)-5-oxa-2-azaspiro[3.4]octane]
- inhibition at 10 µM [1]: 64%
- IC50 ([2]; read-out: 5HT2A IC50): 0.29 µM

Structure (SMILES): c1ccc(N2C[C@@H]3C[C@H]2CN3CC2CCc3ccccc32)cc1 (stereo partly drawn) [Example 303, (1S,4S)-2-((2,3-dihydro-1H-inden-1-yl)methyl)-5-phenyl-2,5-diazabicyclo[2.2.1]heptane]
- IC50 [1]: 1820 nM
- IC50 ([2]; read-out: 5HT2A IC50): 2.6 µM

Structure (SMILES): COc1ccccc1OC1CCC2(CCN(CC3CCc4cccnc43)C2)C1 (centres unmarked) [Example 373, 2-((6,7-dihydro-5H-cyclopenta[b]pyridin-7-yl)methyl)-7-(2-methoxyphenoxy)-2-azaspiro[4.4]nonane]
- IC50 [1]: 2420 nM
- IC50 ([2]; read-out: 5HT2A IC50): 0.44 µM

Structure (SMILES): O=C1c2ccccc2CCN1CCN1CC[C@@H](Oc2ccc(F)cc2)C1 [Example 25, (R)-2-(2-(3-(4-fluorophenoxy)pyrrolidin-1-yl)ethyl)-3,4-dihydroisoquinolin-1(2H)-one]
- inhibition at 10 µM [1]: 83%
- IC50 ([2]; read-out: 5HT2A IC50): 0.17 µM

Structure (SMILES): c1ccc2c(c1)CCC1(CN(CC3CCc4ccccc43)C1)O2 (centres unmarked) [Example 385, 1-((2,3-dihydro-1H-inden-1-yl)methyl)spiro[azetidine-3,2′-chromane]]
- inhibition at 1 µM [1]: 16%
- IC50 ([2]; read-out: 5HT2A IC50): 0.54 µM

Structure (SMILES): O=C1c2ccccc2CCN1CCCN1CCC(Oc2ccc(F)cc2)CC1 [Example 222, 2-(3-(4-(4-fluorophenoxy)piperidin-1-yl)propyl)-3,4-dihydroisoquinolin-1(2H)-one]
- IC50 [1]: 1300 nM
- IC50 ([2]; read-out: 5HT2A IC50): 0.06 µM

Structure (SMILES): c1ccc(OCCN2CCN(c3nsc4ccccc34)CC2)cc1 [Example 70, 3-(4-(2-phenoxyethyl)piperazin-1-yl)benzo[d]isothiazole]
- IC50 [1]: 1700 nM
- IC50 ([2]; read-out: 5HT2A IC50): 0.004 µM

Structure (SMILES): O[C@H](CO[C@H]1CCCc2ccccc21)CN1CCN(Cc2ccccc2)CC1 [Example 87, (S)-1-(4-benzylpiperazin-1-yl)-3-(((S)-1,2,3,4-tetrahydronaphthalen-1-yl)oxy)propan-2-ol]
- inhibition at 1 µM [1]: 15%
- IC50 ([2]; read-out: 5HT2A IC50): 3.63 µM

Structure (SMILES): Cc1ccc(N2CCN(CC(O)COC3CCCCC3)CC2)cc1 (centres unmarked) [Example 76, 1-(cyclohexyloxy)-3-(4-(p-tolyl)piperazin-1-yl)propan-2-ol]
- IC50 [1]: 240 nM
- IC50 ([2]; read-out: 5HT2A IC50): 0.02 µM

Structure (SMILES): Fc1ccc(O[C@@H]2CCN(CC3COCc4ccccc43)C2)cc1 (stereo partly drawn) [Example 11, (3R)-3-(4-fluorophenoxy)-1-(isochroman-4-ylmethyl)pyrrolidine]
- inhibition at 1 µM [1]: 29%
- IC50 ([2]; read-out: 5HT2A IC50): 0.59 µM

Structure (SMILES): c1ccc([C@@H]2COC3(CCN(C[C@H]4CCc5ccccc54)CC3)C2)cc1 (single isomer, unassigned) [Compound 379]
- IC50 [1]: 290 nM
- IC50 ([2]; read-out: 5HT2A IC50): 0.04 µM

Structure (SMILES): COc1ccccc1O[C@H]1CCN(CC2Cc3cccnc3C2)[C@@H](C)C1 (stereo partly drawn) [Example 150, 6-(((2S,4S)-4-(2-methoxyphenoxy)-2-methylpiperidin-1-yl)methyl)-6,7-dihydro-5H-cyclopenta[b]pyridine]
- inhibition at 1 µM [1]: 14%
- IC50 ([2]; read-out: 5HT2A IC50): 0.72 µM

Structure (SMILES): Fc1ccc(OC2CCN(CCC3COc4ccccc43)CC2)cc1 (centres unmarked) [Example 176, 1-(2-(2,3-dihydrobenzofuran-3-yl)ethyl)-4-(4-fluorophenoxy)piperidine]
- inhibition at 1 µM [1]: 41%
- IC50 ([2]; read-out: 5HT2A IC50): 0.08 µM

Structure (SMILES): c1ccc2c(c1)CCC1(CCN(CC3CCc4ccccc43)CC1)O2 (centres unmarked) [Example 401, 1′-((2,3-dihydro-1H-inden-1-yl)methyl)spiro[chromane-2,4′-piperidine]]
- IC50 [1]: 110 nM
- IC50 ([2]; read-out: 5HT2A IC50): 0.05 µM

Structure (SMILES): COc1ccccc1O[C@@H]1CCN(CC2Cc3ccccc3C2)[C@H](C)C1 [Example 140, (2R,4R)-1-((2,3-dihydro-1H-inden-2-yl)methyl)-4-(2-methoxyphenoxy)-2-methylpiperidine]
- IC50 [1]: 510 nM
- IC50 ([2]; read-out: 5HT2A IC50): 0.63 µM

Structure (SMILES): O=C1c2ccccc2CCN1CCN1CCC(Oc2cccc(Cl)c2)CC1 [Example 194, 2-(2-(4-(3-chlorophenoxy)piperidin-1-yl)ethyl)-3,4-dihydroisoquinolin-1(2H)-one]
- IC50 [1]: 230 nM
- IC50 ([2]; read-out: 5HT2A IC50): 0.11 µM

Structure (SMILES): OC(COC1CCCCC1)CN1C[C@H]2CC[C@@H](C1)N2c1ccccc1 (stereo partly drawn) [Example 299, 1-(cyclohexyloxy)-3-((1R,5S)-8-phenyl-3,8-diazabicyclo[3.2.1]octan-3-yl)propan-2-ol]
- IC50 [1]: 3570 nM
- IC50 ([2]; read-out: 5HT2A IC50): 1.72 µM

Structure (SMILES): c1ccc(N2CCN(CC3CCc4ccccc43)CC2)cc1 (centres unmarked) [Example 55, 1-((2,3-dihydro-1H-inden-1-yl)methyl)-4-phenylpiperazine]
- IC50 [1]: 4120 nM
- IC50 ([2]; read-out: 5HT2A IC50): 0.01 µM

Structure (SMILES): O[C@@H](COC1CCCCC1)CN1CCC2(CCN(c3ccccc3)C2)C1 (stereo partly drawn) [Example 346, (2R)-1-(cyclohexyloxy)-3-(7-phenyl-2,7-diazaspiro[4.4]nonan-2-yl)propan-2-ol]
- IC50 [1]: 320 nM
- IC50 ([2]; read-out: 5HT2A IC50): 0.27 µM

Structure (SMILES): CN1CCN(CC2CCc3ccccc32)CC1COc1ccc(F)cc1 (centres unmarked) [Example 270, 4-((2,3-dihydro-1H-inden-1-yl)methyl)-2-((4-fluorophenoxy)methyl)-1-methylpiperazine]
- inhibition at 1 µM [1]: 56%
- IC50 ([2]; read-out: 5HT2A IC50): 0.11 µM

Structure (SMILES): OC1(CN2CC[C@H](Oc3ccc(F)cc3)C2)COCc2ccccc21 (stereo partly drawn) [Example 10, 4-(((S)-3-(4-fluorophenoxy)pyrrolidin-1-yl)methyl)isochroman-4-ol]
- inhibition at 1 µM [1]: 3%
- IC50 ([2]; read-out: 5HT2A IC50): 0.31 µM

Structure (SMILES): Fc1ccc(O[C@@H]2CCN(CC3CCc4ncccc43)C2)cc1 (stereo partly drawn) [Example 3, 5-(((R)-3-(4-fluorophenoxy)pyrrolidin-1-yl)methyl)-6,7-dihydro-5H-cyclopenta[b]pyridine]
- inhibition at 1 µM [1]: -5%
- IC50 ([2]; read-out: 5HT2A IC50): 1.88 µM
